Assay results as given in PubChem BioAssay AID1963849 (Molecular Pharmacology Branch, DTP, NCI, 2024).

Tested on: 299254-011-R-J1-PDC complex spheroid viability
Test: Anticancer human tumor 299254-011-R-J1-PDC patient-derived melanoma cell line growth inhibition [POLQ]
Details: for IC50: curve of first compound; for viability, T/C: stronger effect = lower value
Method in brief: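 PDC + HUVEC + MSC complex spheroids; POLQ inhibitors ± partner drugs; top conc. at/near clinical Cmax, else 10 microM (SN-38 1 microM), half-log dilutions; 37 degrees C, 5% CO2.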

[1] = second compound 0.0316 µM, first compound 0.0316 µM
[2] = second compound 0.0316 µM, first compound 0.1 µM
[3] = second compound 0.0316 µM, first compound 0.316 µM
[4] = second compound 0.0316 µM, first compound 1 µM
[5] = second compound 0.0316 µM, first compound 3.16 µM
[6] = second compound 0.0316 µM, first compound 10 µM
[7] = second compound 0.1 µM, first compound 0.0316 µM
[8] = second compound 0.1 µM, first compound 0.1 µM
[9] = second compound 0.1 µM, first compound 0.316 µM
[10] = second compound 0.1 µM, first compound 1 µM
[11] = second compound 0.1 µM, first compound 3.16 µM
[12] = second compound 0.1 µM, first compound 10 µM
[13] = second compound 0.316 µM, first compound 0.0316 µM
[14] = second compound 0.316 µM, first compound 0.1 µM
[15] = second compound 0.316 µM, first compound 0.316 µM
[16] = second compound 0.316 µM, first compound 1 µM
[17] = second compound 0.316 µM, first compound 3.16 µM
[18] = second compound 0.316 µM, first compound 10 µM
[19] = second compound 1 µM, first compound 0.0316 µM
[20] = second compound 1 µM, first compound 0.1 µM
[21] = second compound 1 µM, first compound 0.316 µM
[22] = second compound 1 µM, first compound 1 µM
[23] = second compound 1 µM, first compound 3.16 µM
[24] = second compound 1 µM, first compound 10 µM
[25] = second compound 3.16 µM, first compound 0.0316 µM
[26] = second compound 3.16 µM, first compound 0.1 µM
[27] = second compound 3.16 µM, first compound 0.316 µM
[28] = second compound 3.16 µM, first compound 1 µM
[29] = second compound 3.16 µM, first compound 3.16 µM
[30] = second compound 3.16 µM, first compound 10 µM
[31] = second compound 10 µM, first compound 0.0316 µM
[32] = second compound 10 µM, first compound 0.1 µM
[33] = second compound 10 µM, first compound 0.316 µM
[34] = second compound 10 µM, first compound 1 µM
[35] = second compound 10 µM, first compound 3.16 µM
[36] = second compound 10 µM, first compound 10 µM
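Note: spheroids exposed to drugs for one week before measurement.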
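Throughout, for viability, T/C: percent viability relative to DMSO vehicle control taken as 100%.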

`CNCc1ccc(-c2[nH]c3cc(F)cc4c3c2CCNC4=O)cc1` + Cc1cccc(N(C)C(=O)C2C(O)CCN2c2nc(C)cc(C(F)(F)F)c2C#N)c1 showed an IC50 (second compound 0.0316 µM) of over 10000 nM, an IC50 (second compound 0.1 µM) of over 10000 nM and an IC50 (second compound 0.316 µM) of over 10000 nM. It also gave an IC50 (second compound 1 µM) of over 10000 nM, an IC50 (second compound 3.16 µM) of over 10000 nM and an IC50 (second compound 10 µM) of over 10000 nM. The viability, T/C [1] was 101%, the viability, T/C [2] was 100% and the viability, T/C [3] was 104%. It also gave a viability, T/C [4] of 109%, a viability, T/C [5] of 104% and a viability, T/C [6] of 136%. The viability, T/C [7] was 102%, the viability, T/C [8] was 105% and the viability, T/C [9] was 110%. It also gave a viability, T/C [10] of 112%, a viability, T/C [11] of 112% and a viability, T/C [12] of 118%. It also gave a viability, T/C [13] of 109%, a viability, T/C [14] of 110% and a viability, T/C [15] of 98.1%. It also gave a viability, T/C [16] of 108%, a viability, T/C [17] of 130% and a viability, T/C [18] of 116%. It also gave a viability, T/C [19] of 107%, a viability, T/C [20] of 109% and a viability, T/C [21] of 98.3%. For the same molecule, the viability, T/C [22] was 103%, the viability, T/C [23] was 119% and the viability, T/C [24] was 118%. For the same molecule, the viability, T/C [25] was 120%, the viability, T/C [26] was 110% and the viability, T/C [27] was 117%. The viability, T/C [28] was 109%, the viability, T/C [29] was 112% and the viability, T/C [30] was 119%. For the same molecule, the viability, T/C [31] was 113%, the viability, T/C [32] was 98.5% and the viability, T/C [33] was 96.8%. For the same molecule, the viability, T/C [34] was 97%, the viability, T/C [35] was 108% and the viability, T/C [36] was 118%.

`COc1cccc(OCCCN)c1-c1cc(Nc2cnc(C#N)cn2)n[nH]1` + Cc1cccc(N(C)C(=O)C2C(O)CCN2c2nc(C)cc(C(F)(F)F)c2C#N)c1 gave an IC50 (second compound 0.0316 µM) of 188 nM, an IC50 (second compound 0.1 µM) of 136 nM and an IC50 (second compound 0.316 µM) of 95.4 nM. It also gave an IC50 (second compound 1 µM) of 207 nM, an IC50 (second compound 3.16 µM) of 105 nM and an IC50 (second compound 10 µM) of 112 nM. For the same molecule, the viability, T/C (second compound 0.0316 µM, first compound 0.00316 µM) was 99.2%, the viability, T/C (second compound 0.0316 µM, first compound 0.01 µM) was 108% and the viability, T/C [1] was 71.2%. It also gave a viability, T/C [2] of 64.1%, a viability, T/C [3] of 39.6% and a viability, T/C [4] of 42%. For the same molecule, the viability, T/C (second compound 0.1 µM, first compound 0.00316 µM) was 92.7%, the viability, T/C (second compound 0.1 µM, first compound 0.01 µM) was 104% and the viability, T/C [7] was 75.6%. For the same molecule, the viability, T/C [8] was 53.7%, the viability, T/C [9] was 49% and the viability, T/C [10] was 38.2%. It also gave a viability, T/C (second compound 0.316 µM, first compound 0.00316 µM) of 100%, a viability, T/C (second compound 0.316 µM, first compound 0.01 µM) of 106% and a viability, T/C [13] of 74.7%. It also gave a viability, T/C [14] of 52%, a viability, T/C [15] of 49.2% and a viability, T/C [16] of 45.6%. For the same molecule, the viability, T/C (second compound 1 µM, first compound 0.00316 µM) was 90.6%, the viability, T/C (second compound 1 µM, first compound 0.01 µM) was 103% and the viability, T/C [19] was 71.1%. It also gave a viability, T/C [20] of 65.9%, a viability, T/C [21] of 40.6% and a viability, T/C [22] of 38.9%. It also gave a viability, T/C (second compound 3.16 µM, first compound 0.00316 µM) of 120%, a viability, T/C (second compound 3.16 µM, first compound 0.01 µM) of 107% and a viability, T/C [25] of 72.3%. For the same molecule, the viability, T/C [26] was 52.2%, the viability, T/C [27] was 41% and the viability, T/C [28] was 33.9%. For the same molecule, the viability, T/C (second compound 10 µM, first compound 0.00316 µM) was 103%, the viability, T/C (second compound 10 µM, first compound 0.01 µM) was 85.1% and the viability, T/C [31] was 64.8%. The viability, T/C [32] was 54.1%, the viability, T/C [33] was 37.8% and the viability, T/C [34] was 39.8%.

`Nc1ccn(C2OC(CO)C(O)C2(F)F)c(=O)n1` (stereo not drawn) + Cc1cccc(N(C)C(=O)C2C(O)CCN2c2nc(C)cc(C(F)(F)F)c2C#N)c1 was tested, and the IC50 (second compound 0.0316 µM) was 65.3 nM, the IC50 (second compound 0.1 µM) was 73.7 nM and the IC50 (second compound 0.316 µM) was 74.2 nM. It also gave an IC50 (second compound 1 µM) of 78.7 nM, an IC50 (second compound 3.16 µM) of 41.8 nM and an IC50 (second compound 10 µM) of 76.4 nM. It also gave a viability, T/C [1] of 66.5%, a viability, T/C [2] of 41.4% and a viability, T/C [3] of 31.7%. The viability, T/C [4] was 37.7%, the viability, T/C [5] was 40.8% and the viability, T/C [6] was 36.6%. The viability, T/C [7] was 66%, the viability, T/C [8] was 43.7% and the viability, T/C [9] was 46.8%. It also gave a viability, T/C [10] of 38%, a viability, T/C [11] of 42.8% and a viability, T/C [12] of 43.5%. The viability, T/C [13] was 70.5%, the viability, T/C [14] was 42.3% and the viability, T/C [15] was 41.2%. It also gave a viability, T/C [16] of 42%, a viability, T/C [17] of 35.2% and a viability, T/C [18] of 35.8%. It also gave a viability, T/C [19] of 76.9%, a viability, T/C [20] of 44.1% and a viability, T/C [21] of 33.5%. The viability, T/C [22] was 33.7%, the viability, T/C [23] was 49.9% and the viability, T/C [24] was 40.3%. It also gave a viability, T/C [25] of 59.1%, a viability, T/C [26] of 43% and a viability, T/C [27] of 37.1%. The viability, T/C [28] was 41.1%, the viability, T/C [29] was 42.5% and the viability, T/C [30] was 37.6%. It also gave a viability, T/C [31] of 72.8%, a viability, T/C [32] of 44.2% and a viability, T/C [33] of 34.1%. For the same molecule, the viability, T/C [34] was 39.8%, the viability, T/C [35] was 32.9% and the viability, T/C [36] was 48.1%.

With `O=C(c1cc(Cc2n[nH]c(=O)c3ccccc23)ccc1F)N1CCN(C(=O)C2CC2)CC1` + Cc1cccc(N(C)C(=O)C2C(O)CCN2c2nc(C)cc(C(F)(F)F)c2C#N)c1 the IC50 (second compound 0.0316 µM) was over 10000 nM, the IC50 (second compound 0.1 µM) was over 10000 nM and the IC50 (second compound 0.316 µM) was over 10000 nM. It also gave an IC50 (second compound 1 µM) of over 10000 nM, an IC50 (second compound 3.16 µM) of over 10000 nM and an IC50 (second compound 10 µM) of over 10000 nM. It also gave a viability, T/C [1] of 90.3%, a viability, T/C [2] of 85.9% and a viability, T/C [3] of 98.3%. For the same molecule, the viability, T/C [4] was 104%, the viability, T/C [5] was 99.6% and the viability, T/C [6] was 101%. It also gave a viability, T/C [7] of 93.5%, a viability, T/C [8] of 108% and a viability, T/C [9] of 95%. It also gave a viability, T/C [10] of 97.5%, a viability, T/C [11] of 110% and a viability, T/C [12] of 77.4%. It also gave a viability, T/C [13] of 93%, a viability, T/C [14] of 94% and a viability, T/C [15] of 95.9%. For the same molecule, the viability, T/C [16] was 104%, the viability, T/C [17] was 106% and the viability, T/C [18] was 83.8%. The viability, T/C [19] was 125%, the viability, T/C [20] was 101% and the viability, T/C [21] was 108%. The viability, T/C [22] was 117%, the viability, T/C [23] was 102% and the viability, T/C [24] was 80.2%. For the same molecule, the viability, T/C [25] was 96.4%, the viability, T/C [26] was 111% and the viability, T/C [27] was 99.6%. The viability, T/C [28] was 115%, the viability, T/C [29] was 92.8% and the viability, T/C [30] was 74.2%. It also gave a viability, T/C [31] of 102%, a viability, T/C [32] of 94.5% and a viability, T/C [33] of 83.2%. It also gave a viability, T/C [34] of 89.2%, a viability, T/C [35] of 92.9% and a viability, T/C [36] of 69%.
